Data on four compounds can be found in patent US7074804B2, “CCI-779 Isomer C” (Wyeth, priority 2003, dated 2006).

Molecules are shown by their SMILES. Converted amounts (≈) assume the structure as drawn. Read-outs that look alike come from different tables or passages of the source. Some results are limits rather than exact numbers.

The subject of one series is Aspergillus fumigatus. Nature of the series: Antifungal activity, microtiter broth dilution MIC. The conditions noted are these: Aspergillus fumigatus strain ATCC 26933, RPMI 1640, 35° C., 24–48 h. Format: cell-based. The procedure:
(§1) Antifungal activity for CCI-779 Isomer C was established by evaluating it against several strains of fungi. Briefly the following procedure was used to evaluate such activity. A 96 well microtiter plate was filled (50 μL/well) with RPMI 1640. The compounds to be evaluated were placed in appropriate wells and serial diluted in successive wells to provide several dilutions. The concentration ranged from […]. An adjusted inoculum of fungi (50 μL) was added to each well and plates were incubated at 35° C. for 24–48 h.
(Broth dilution looks for growth in wells or tubes with falling amounts of substance.)

For another series, the system named is Candida parapsilosis. As to the kind of experiment: Antifungal activity, microtiter broth dilution MIC. It counts as cell-based. Particulars: RPMI 1640, 35° C., 24–48 h. The procedure:
as §1

The next series concerns Candida albicans. Nature of the series: Antifungal activity, microtiter broth dilution MIC. It counts as cell-based. Particulars: RPMI 1640, 35° C., 24–48 h. The procedure:
as §1

The subject of the next series is Candida rugosa. As to the kind of experiment: Antifungal activity, microtiter broth dilution MIC. The conditions noted are these: Candida rugosa strain 94-10, RPMI 1640, 35° C., 24–48 h. Format: cell-based. The procedure: as §1
In the next series the test system is Aspergillus niger. Nature of the series: Antifungal activity, microtiter broth dilution MIC. It counts as cell-based. The conditions noted are these: RPMI 1640, 35° C., 24–48 h. The procedure:
as §1

The subject of the next series is Candida pseudotropicalis. As to the kind of experiment: Antifungal activity, microtiter broth dilution MIC. Format: cell-based. Particulars: Candida pseudotropicalis strain ATCC 28838, RPMI 1640, 35° C., 24–48 h. The procedure:
as §1

The next series concerns Candida tropicalis. As to the kind of experiment: Antifungal activity, microtiter broth dilution MIC. Format: cell-based. The conditions noted are these: RPMI 1640, 35° C., 24–48 h. The procedure:
as §1

The test system of a further series is Candida lusitaniae. Nature of the series: Antifungal activity, microtiter broth dilution MIC. Format: cell-based. The conditions noted are these: Candida lusitaniae strain 94-3, RPMI 1640, 35° C., 24–48 h. The procedure: as §1
Another series has as its system Candida krussii. As to the kind of experiment: Antifungal activity, microtiter broth dilution MIC. Format: cell-based. Particulars: Candida krussii strain 94-2, RPMI 1640, 35° C., 24–48 h. The procedure: as §1
Series [1] can be described thus: Stability of CCI-779 Isomer C (solid form, aqueous suspension, formulation). Format: physicochemical.
Series [2] deals with histologically diverse tumor cells. The conditions noted are these: cited from earlier work.
The subject of a further series is human tumor xenografts. Particulars: nude mice, diverse histological types; cited from earlier work.
Where [3] appears, read: Candida parapsilosis strain 94-9.
Where [4] appears, read: Candida tropicalis strain 94-13.
Where [5] appears, read: Candida parapsilosis strain 94-8.
The mark [6] stands for this setting: Candida parapsilosis strain ATCC 90018.
[7] abbreviates: Candida albicans strain ATCC 90028.
The mark [8] stands for this setting: Candida tropicalis strain 94-14.

By MIC is commonly meant the smallest concentration in the dilution series that meets the test's criterion for growth inhibition. Regarding `CO[C@H]1C[C@@H]2CC[C@@H](C)C(=O)C(O)(O2)C(=O)N2CCCC[C@H]2C(=O)O[C@H]([C@H](C)C[C@@H]2CC[C@@H](OC(=O)C(C)(CO)CO)[C@H](OC)C2)CC(=O)[C@H](C)/C=C(\C)[C@@H](O)[C@@H](OC)C(=O)[C@H](C)C[C@H](C)/C=C/C=C/C=C/1C` (single isomer, unassigned) [CCI-779 Isomer C], the MIC in the series on Aspergillus fumigatus (ATCC26933, read-out: MIC) is greater than 32 µg/mL; in the series on Candida parapsilosis (setting [3]), 4 µg/mL (≈ 3.88 µM); in the series on Candida parapsilosis (Lodderomyces parapsilosis, ATCC90018, Candida parapsilosis strain ATCC 90018, read-out: MIC) it was 4 µg/mL (≈ 3.88 µM); in the series with Candida parapsilosis (Lodderomyces parapsilosis, Candida parapsilosis strain 94-8, read-out: MIC), 4 µg/mL (≈ 3.88 µM); in the series on Candida albicans (ATCC90028, Candida albicans strain ATCC 90028, read-out: MIC) it was 4 µg/mL (≈ 3.88 µM); in the series on Candida albicans (Candida albicans strain 1063, read-out: MIC), 4 µg/mL (≈ 3.88 µM). Also, the minimal inhibitory concentration (MIC) in the series with Candida albicans (Candida albicans strain 1117) worked out at 4 µg/mL (≈ 3.88 µM); in the series with Candida rugosa (Diutina rugosa, read-out: MIC) it was 16 µg/mL (≈ 15.5 µM); against Aspergillus niger (Aspergillus niger strain S399), 32 µg/mL (≈ 31.1 µM); with Aspergillus niger (Aspergillus niger strain S430, read-out: MIC), 32 µg/mL (≈ 31.1 µM); in the series with Candida pseudotropicalis (Kluyveromyces marxianus, ATCC28838, read-out: MIC) it was 4 µg/mL (≈ 3.88 µM); in the series with Candida tropicalis (setting [4]), 4 µg/mL (≈ 3.88 µM). For the same compound, the MIC with Candida tropicalis (Candida tropicalis strain 94-14, read-out: MIC) was 4 µg/mL (≈ 3.88 µM); in the series on Candida lusitaniae (Clavispora lusitaniae, read-out: MIC), 8 µg/mL (≈ 7.76 µM); in the series on Candida krussii (read-out: MIC), 4 µg/mL (≈ 3.88 µM). Besides, the “stability with citric acid” value in [1] (citric acid at a concentration of less than 0.01% w/v in formulation) was “enhanced the stability”. In [1] (formulated in solid form), the “stability under storage conditions” value is on record as “stable under storage conditions for extended periods of time”. Besides, the stability entry in series [1] (in an aqueous suspension) is given as “stable”.
On to `CO[C@H]1C[C@@H]2CC[C@@H](C)[C@@](O)(O2)C(=O)C(=O)N2CCCC[C@H]2C(=O)O[C@H]([C@H](C)C[C@@H]2CC[C@@H](OC(=O)C(C)(CO)CO)[C@H](OC)C2)CC(=O)[C@H](C)/C=C(\C)[C@@H](O)[C@@H](OC)C(=O)[C@H](C)C[C@H](C)/C=C/C=C/C=C/1C` (single isomer, unassigned) [CCI-779, Rapamycin 42-ester with 3-hydroxy-2-(hydroxymethyl)-2-methylpropionic acid], for which the “growth of tumor cells in vitro” value in series [2] (CNS cancer, leukemia (T-cell), breast, prostate, melanoma lines most sensitive) is listed as “inhibit the growth”. Also, in [2] (in vitro), the cell cycle effect result was “arrested cells in the G1 phase of the cell cycle”. In addition, the “activity against human tumor xenografts” value with human tumor xenografts was “has activity”.
Turning to `C[C@@H]1[C@H](O)[C@@H](C)/C=C/C=C/C=C/C=C/C=C/C=C/C=C/[C@H](O[C@@H]2O[C@H](C)[C@@H](O)[C@H](N)[C@@H]2O)C[C@@H]2O[C@](O)(C[C@@H](O)C[C@@H](O)[C@H](O)CC[C@@H](O)C[C@@H](O)CC(=O)O[C@H]1C)C[C@H](O)[C@H]2C(=O)O` [Amphotericin B], the MIC is 0.25 µg/mL (≈ 0.271 µM) against Aspergillus fumigatus; “≦0.06 μg/mL” against Candida parapsilosis (setting [5]); 0.12 µg/mL (≈ 0.13 µM) in the series with Candida parapsilosis (setting [3]); “≦0.06 μg/mL” against Candida parapsilosis (setting [6]); “≦0.06 μg/mL” against Candida albicans (Candida albicans strain 1063); 0.12 µg/mL (≈ 0.13 µM) in the series on Candida albicans (Candida albicans strain 1117). The MIC against Candida albicans (setting [7]) is 0.12 µg/mL (≈ 0.13 µM); against Candida rugosa, 0.25 µg/mL (≈ 0.271 µM); with Aspergillus niger (Aspergillus niger strain S399) it was 0.50 µg/mL (≈ 0.541 µM); in the series with Aspergillus niger (Aspergillus niger strain S430), 0.25 µg/mL (≈ 0.271 µM); against Candida pseudotropicalis it was “≦0.06 μg/mL”; in the series with Candida tropicalis (setting [4]), “≦0.06 μg/mL”. Also, the MIC result with Candida tropicalis (setting [8]) is “≦0.06 μg/mL”; against Candida lusitaniae it was “≦0.06 μg/mL”; in the series with Candida krussii it was 0.12 µg/mL (≈ 0.13 µM).
For `C[C@@H]1[C@H](O)[C@@H](C)/C=C/C=C/CC/C=C/C=C/C=C/C=C/C(O[C@H]2O[C@H](C)[C@@H](O)[C@H](N)[C@@H]2O)CC2O[C@](O)(CC(O)C(O)CCC(O)CC(O)CC(O)CC(=O)O[C@H]1C)CC(O)C2C(=O)O` (stereo partly drawn) [Nystatin], the MIC against Aspergillus fumigatus was found to be 2 µg/mL (≈ 2.16 µM); against Candida parapsilosis (setting [5]) it was 2 µg/mL (≈ 2.16 µM); in the series on Candida parapsilosis (setting [3]), 1 µg/mL (≈ 1.08 µM); with Candida parapsilosis (setting [6]) it was 2 µg/mL (≈ 2.16 µM); in the series with Candida albicans (Candida albicans strain 1063), 1 µg/mL (≈ 1.08 µM); against Candida albicans (Candida albicans strain 1117), 1 µg/mL (≈ 1.08 µM). Further, the MIC in the series with Candida albicans (setting [7]) was found to be 1 µg/mL (≈ 1.08 µM); in the series on Candida rugosa it was 1 µg/mL (≈ 1.08 µM); against Aspergillus niger (Aspergillus niger strain S399), 2 µg/mL (≈ 2.16 µM); against Aspergillus niger (Aspergillus niger strain S430), 1 µg/mL (≈ 1.08 µM); in the series on Candida pseudotropicalis, 1 µg/mL (≈ 1.08 µM); in the series with Candida tropicalis (setting [4]), 1 µg/mL (≈ 1.08 µM). Moreover, the minimal inhibitory concentration (MIC) in the series with Candida tropicalis (setting [8]), in the series with Candida lusitaniae and in the series on Candida krussii was 1 µg/mL (≈ 1.08 µM) in each case.
